According to patent US20110183969A1, “ANTIFUNGAL COMBINATION THERAPY” (priority 2008, published 2011):
Converted amounts (≈) assume the structure as drawn. Where two headings read alike, the source gives them in different places.

Assays:
Assay in all cases: MIC (YAG medium)
Format in all cases: cell-based
Aspergillus terreus AT4 = details: for MIC: Aspergillus terreus
Method: (§1) Between 1 and 5 mgs of compound were accurately weighed out into a sterile Eppendorf tube. The compound was dissolved in DMSO to give a solution containing 5 mg/mL. Tubes were stored at −20° C. until required.
(§2) On the day of testing thawed solutions were vortex mixed to ensure homogeneity. 30 μL of solution was removed and added to 570 μL of sterile water in a separate sterile Eppendorf The thoroughly mixed solution was used to prepare a series of doubling dilutions in water, in a deep well plate. […] replicate plates were prepared using a Minitrak by aspirating 20 μL from each well into eleven clear polystyrene 96 well plates.
(§3) Spores of Aspergillus spp. (Aspergillus fumigatus [two strains], Aspergillus terreus [two strains], Aspergillus niger and Aspergillus flavus) were harvested from cultures grown on Sabarauds agar for 5 days, and resuspended in PBS/Tween 80 to approx 1×10^7 cfu/mL. Other filamentous fungi (Absidia corymbifera, Fusarium solani, Rhizomucor, Scedosporium spp., Trichophyton spp.), were grown on Sabarauds agar for 2-10 days and spores/hyphae resuspended in PBS/Tween to give approx 1×10^7 cfu/mL. Candida species (Candida albicans, Candida glabrata, Candida krusei, Candida parapsilosis and Candida tropicalis) were grown on Sabarauds agar, cells were harvested from the agar using a sterile loop and resuspended in PBS/Tween 80 to approx 1×10^6 cfu/mL. Each organism suspension was diluted in RPMI medium, containing 2% glucose and 0.135 M MOPS buffer (pH 7.0) to 0.5−2×10^4 cfu/mL for Aspergillus spp. and other filamentous fungi and 0.5-2×10^3 cfu/mL for yeast. 80 μL of an organism suspension was added to each well of the plate containing drug dilutions.
(§4) This produced MIC plates with a drug range 50-0.05 mg/L and organism inocula of 1-2×10^4 cfu/mL for Aspergillus spp. and other filamentous fungi and 1-2×10^3 cfu/mL for yeasts. All plates were incubated for 24-48 hrs at 35° C. Growth was assessed by monitoring the optical density at 485 nm for each well. The MIC of a compound is the lowest drug concentration that inhibits growth of an organism by >80% compared with a drug free control. MICs are recorded as mg/L. Other growth media can be used for susceptibility testing, and the activity of the described compounds can also be assessed in a medium comprising 1% glucose, 1% ammonium chloride and 0.5% yeast extract (YAG medium). To perform MIC tests in this medium, dilutions of compounds are prepared in microtitre plates as described above. Fungal strains to be tested are grown and harvested in an identical manner to that described above, each organism suspension is then diluted in YAG medium to 0.5-2×10^4 cfu/mL for Aspergillus spp. and other filamentous fungi and 0.5-2×10^3 cfu/mL for yeast. 80 μL of an organism suspension was added to each well of the plate containing drug dilutions. This produced MIC plates with a drug range 50-0.05 mg/L and organism inocula of 1-2×10^4 cfu/mL for Aspergillus spp. and other filamentous fungi and 1-2×10^3 cfu/mL for yeasts. All plates were incubated for 24 hrs at 35° C. Growth was assessed by monitoring the optical density at 485 nm for each well. The MIC of a compound is the lowest drug concentration that inhibits growth of an organism by >70% compared with a drug free control. MICs are recorded as mg/L. In cases where the MIC of an organism is […] mg/L the MIC is repeated using a concentration range of 0.5-0.0005 mg/L. MIC tests in YAG medium have more clear-cut endpoints and have slightly lower MICs than those performed in RPMI medium.
(§5) The following organisms were tested: Absidia corymbifera, Aspergillus flavus, Aspergillus fumigatus AF293 and AF210, Aspergillus niger, Aspergillus terreus AT4 and AT49, Candida albicans, Candida glabrata, Candida krusei, Candida parapsilosis, Candida tropicalis, Fusarium solani, Rhizomucor sp., Scedosporium apiospermum, Scedosporium prolificans, Trichophyton mentagrophytes, and Trichophyton rubrum.

Aspergillus terreus AT49 = details: for MIC: Aspergillus terreus
Method: as §1, §2, §3, §4, §5

Aspergillus niger = details: for MIC: Aspergillus niger, read-out: MIC A. niger (grade)
Method: as §1, §2, §3, §4, §5

[1] = test system: Aspergillus fumigatus AF293; details: for MIC: Aspergillus fumigatus
Method: as §1, §2, §3, §4, §5

[2] = test system: Aspergillus fumigatus AF210; details: for MIC: Aspergillus fumigatus
Method: as §1, §2, §3, §4, §5

Aspergillus flavus = details: for MIC: Aspergillus flavus, read-out: MIC A. flavus (grade)
Method: as §1, §2, §3, §4, §5

[3] = YAG medium, MIC banded into grades, AT4, read-out: MIC A. terreus (grade)
[4] = YAG medium, MIC banded into grades, AT49, read-out: MIC A. terreus 49 (grade)
[5] = YAG medium, MIC banded into grades
[6] = YAG medium, MIC banded into grades, AF293, read-out: MIC A. fumigatus (grade)
[7] = YAG medium, MIC banded into grades, AF210, read-out: MIC A. fumigatus 210 (grade)
[8] = YAG medium, MIC banded into grades, AT4
[9] = YAG medium, MIC banded into grades, AT49
[10] = YAG medium, MIC banded into grades, AF293
[11] = YAG medium, MIC banded into grades, AF210

SMILES | MIC (Aspergillus terreus AT4; [3]) [µg/mL] | MIC (Aspergillus terreus AT49; [4]) [µg/mL] | MIC (Aspergillus niger; [5]) [µg/mL] | MIC [1, 6] [µg/mL] | MIC [2, 7] [µg/mL] | MIC (Aspergillus flavus; [5]) [µg/mL] | MIC A. terreus (grade) (Aspergillus terreus AT4; [8]) | MIC A. terreus 49 (grade) (Aspergillus terreus AT49; [9]) | MIC A. niger (grade) (Aspergillus niger; [5]) | MIC A. fumigatus (grade) [1, 10] | MIC A. fumigatus 210 (grade) [2, 11] | MIC A. flavus (grade) (Aspergillus flavus; [5]) | also measured
Cc1nc(C(C)C)cn1C(C)(C)c1cccc(NC(=O)C(=O)c2c(-c3ccccc3)cc3ccccn23)c1 [Example 25] |  |  |  |  |  |  | 2 (A grade of 2 represents an MIC of from 1 to 10) | 2 (A grade of 2 represents an MIC of from 1 to 10) | 1 (a grade of 1 represents an MIC of greater than 10 mg/L) | 1 (a grade of 1 represents an MIC of greater than 10 mg/L) | 1 (a grade of 1 represents an MIC of greater than 10 mg/L) | 2 (A grade of 2 represents an MIC of from 1 to 10) | 
CCN(CC)C(=O)Oc1cc(-c2ccc(NC(=O)C(=O)c3c(-c4ccccc4)cc4ccccn34)cc2)on1 [Example 27, Diethyl-carbamic acid-5-{4-[2-oxo-2-(2-phenyl-indolizin-3-yl)-acetylamino]-phenyl}-isoxazol-3-yl ester] |  |  |  |  |  |  |  |  |  |  |  |  | MIC (Aspergillus terreus AT4; AT4, read-out: MIC A. terreus (grade)): < 1 µg/mL; MIC (Aspergillus terreus AT49; AT49, read-out: MIC A. terreus 49 (grade)): < 1 µg/mL; MIC (Aspergillus niger): < 1 µg/mL; MIC ([1]; AF293, read-out: MIC A. fumigatus (grade)): < 1 µg/mL; MIC ([2]; AF210, read-out: MIC A. fumigatus 210 (grade)): < 1 µg/mL; MIC (Aspergillus flavus): < 1 µg/mL
CCOCCN(C1=NC(C)(C)CO1)c1ccc(NC(=O)C(=O)c2c(-c3ccccc3)cc3ccccn23)cc1 [Example 28] |  |  |  |  |  |  | 2 (A grade of 2 represents an MIC of from 1 to 10) | 2 (A grade of 2 represents an MIC of from 1 to 10) | 3 (A grade of 3 represents an MIC of less than 1 mg/L) | 2 (A grade of 2 represents an MIC of from 1 to 10) | 2 (A grade of 2 represents an MIC of from 1 to 10) | 2 (A grade of 2 represents an MIC of from 1 to 10) | 
O=C(Nc1ccc(N2CCN(Cc3ccco3)CC2)cc1)C(=O)c1c(-c2ccccc2)cc2ccccn12 [Example 31, 4-[4-(2-Furan-2-yl-methyl-piperazin-yl)-phenyl]-2-oxo-2-(2-phenyl-indolizin-3-yl)-acetamide] |  |  |  |  |  |  | 3 (A grade of 3 represents an MIC of less than 1 mg/L) | 3 (A grade of 3 represents an MIC of less than 1 mg/L) | 3 (A grade of 3 represents an MIC of less than 1 mg/L) | 3 (A grade of 3 represents an MIC of less than 1 mg/L) | 3 (A grade of 3 represents an MIC of less than 1 mg/L) | 3 (A grade of 3 represents an MIC of less than 1 mg/L) | 
O=C(Nc1ccc(N2CCN(Cc3cccs3)CC2)cc1)C(=O)c1c(-c2ccccc2)cc2ccccn12 [Example 33, 2-Oxo-2-(2-phenylindolizin-3-yl)-N-[4-(4-thiophen-2-ylmethylpiperazin-1-yl)phenyl] acetamide] |  |  |  |  |  |  | 3 (A grade of 3 represents an MIC of less than 1 mg/L) | 3 (A grade of 3 represents an MIC of less than 1 mg/L) | 3 (A grade of 3 represents an MIC of less than 1 mg/L) | 3 (A grade of 3 represents an MIC of less than 1 mg/L) | 3 (A grade of 3 represents an MIC of less than 1 mg/L) | 3 (A grade of 3 represents an MIC of less than 1 mg/L) | 

More lines, main results first:

MIC (Aspergillus terreus AT4; [3]) [µg/mL] | MIC (Aspergillus terreus AT49; [4]) [µg/mL] | MIC (Aspergillus niger; [5]) [µg/mL] | MIC [1, 6] [µg/mL] | MIC [2, 7] [µg/mL] | MIC (Aspergillus flavus; [5]) [µg/mL] | SMILES | MIC A. terreus (grade) (Aspergillus terreus AT4; [8]) | MIC A. terreus 49 (grade) (Aspergillus terreus AT49; [9]) | MIC A. niger (grade) (Aspergillus niger; [5]) | MIC A. fumigatus (grade) [1, 10] | MIC A. fumigatus 210 (grade) [2, 11] | MIC A. flavus (grade) (Aspergillus flavus; [5]) | also measured
> 10 | 1 to 10 (≈ 1.78 to 17.8 µM) | > 10 | > 10 | > 10 | > 10 | CC(C)c1nccn1CCOC(=O)C(C)(C)c1ccc(NC(=O)C(=O)c2c(-c3ccccc3)cc3ccccn23)cc1 [Example 18, 2-methyl-2-{4-[2-oxo-2-(2-phenyl-indolizin-3-yl)-acetylamino]-phenyl}-propionic acid 2-(2-isopropyl-imidazol-1-yl)-ethyl ester] |  |  |  |  |  |  | 
1 to 10 (≈ 1.98 to 19.8 µM) | 1 to 10 (≈ 1.98 to 19.8 µM) | > 10 | > 10 | > 10 | > 10 | CN1CCN(c2ccc(NC(=O)C(=O)c3c(-c4ccccc4)cc4ccccn34)cc2-c2ncco2)CC1 [Example 19, N-[4-(4-methyl-piperazin-1-yl)-3-oxazol-2-yl-phenyl]-2-oxo-2-(2-phenyl-indolizin-3-yl)-acetamide] |  |  |  |  |  |  | 
1 to 10 (≈ 1.92 to 19.2 µM) | < 1 | > 10 | 1 to 10 (≈ 1.92 to 19.2 µM) | 1 to 10 (≈ 1.92 to 19.2 µM) | < 1 | Cc1nccn1CCCOc1ccc(NC(=O)C(=O)c2c(-c3ccccc3)cc3ccccn23)cc1C(C)C [Example 20, N-{3-Isopropyl-4-[3-(2-methyl-imidazol-1-yl)-propoxy]-phenyl}-2-oxo-2-(2-phenyl-indolizin-3-yl)-acetamide] |  |  |  |  |  |  | 
1 to 10 (≈ 1.78 to 17.8 µM) | 1 to 10 (≈ 1.78 to 17.8 µM) | > 10 | > 10 | > 10 | 1 to 10 (≈ 1.78 to 17.8 µM) | CC(C)c1nccn1CCOC(=O)C(C)(C)c1cccc(NC(=O)C(=O)c2c(-c3ccccc3)cc3ccccn23)c1 [Example 22, 2-Methyl-2-{3-[2-oxo-2-(2-phenyl-indolizin-3-yl)-acetylamino]-phenyl}-propionic acid 2-(2-isopropyl-imidazol-1-yl)-ethyl ester] |  |  |  |  |  |  | 
1 to 10 (≈ 1.84 to 18.4 µM) | < 1 | 1 to 10 (≈ 1.84 to 18.4 µM) | 1 to 10 (≈ 1.84 to 18.4 µM) | < 1 | < 1 | O=C(Nc1ccc(N2CCC(N3CCOCC3)CC2)cc1)C(=O)c1c(-c2ccccc2Cl)cc2ccccn12 [Example 26, 2-[2-(2-Chloro-phenyl)-indolizin-3-yl]-N-[4-(4-morpholin-4-yl-piperidin-1-yl)-phenyl]-2-oxo-acetamide] |  |  |  |  |  |  | 
< 1 | < 1 | < 1 | < 1 | 1 to 10 (≈ 1.66 to 16.6 µM) | < 1 | CN1CCN(c2oc(-c3ccc(NC(=O)C(=O)c4c(-c5ccccc5)cc5ccccn45)cc3)nc2C(=O)C(F)(F)F)CC1 [Example 29, N-{4-[5-(4-Methyl-piperazin-1-yl)-4-(2,2,2-trifluoro-acetyl)-oxazol-2-yl]-phenyl}-2-oxo-2-(2-phenyl-indolizin-3-yl)-acetamide] |  |  |  |  |  |  | 
< 1 | < 1 | < 1 | < 1 | < 1 | < 1 | Cc1cc(C)nc(N2CCN(c3ccc(NC(=O)C(=O)c4c(-c5ccccc5)cc5ccc(F)cn45)cc3)CC2)c1 [Example 32, N-{4-[4-(4,6-Dimethyl-pyridin-2-yl)-piperazin-1-yl]-phenyl}-2-(6-fluoro-2-phenyl-indolizin-3-yl)-2-oxo-acetamide] |  |  |  |  |  |  | 
